Test: Anticancer human tumor 997537-175-T-J1-PDC patient-derived colon adenocarcinoma cell line growth inhibition [POLQ]
Conditions: 997537-175-T-J1-PDC complex spheroid viability, combination with POLQ inhibitors; for IC50: curve of first compound; for viability, T/C: stronger effect = lower value
Method in brief: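 PDC + HUVEC + MSC complex spheroids; POLQ inhibitors ± partner drugs; top conc. at/near clinical Cmax, else 10 microM (SN-38 1 microM), half-log dilutions; 37 degrees C, 5% CO2.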

[1] = second compound 0.0316 µM, first compound 0.000316 µM
[2] = second compound 0.0316 µM, first compound 0.001 µM
[3] = second compound 0.0316 µM, first compound 0.00316 µM
[4] = second compound 0.0316 µM, first compound 0.01 µM
[5] = second compound 0.0316 µM, first compound 0.0316 µM
[6] = second compound 0.0316 µM, first compound 0.1 µM
[7] = second compound 0.1 µM, first compound 0.000316 µM
[8] = second compound 0.1 µM, first compound 0.001 µM
[9] = second compound 0.1 µM, first compound 0.00316 µM
[10] = second compound 0.1 µM, first compound 0.01 µM
[11] = second compound 0.1 µM, first compound 0.0316 µM
[12] = second compound 0.1 µM, first compound 0.1 µM
[13] = second compound 0.316 µM, first compound 0.000316 µM
[14] = second compound 0.316 µM, first compound 0.001 µM
[15] = second compound 0.316 µM, first compound 0.00316 µM
[16] = second compound 0.316 µM, first compound 0.01 µM
[17] = second compound 0.316 µM, first compound 0.0316 µM
[18] = second compound 0.316 µM, first compound 0.1 µM
[19] = second compound 1 µM, first compound 0.000316 µM
[20] = second compound 1 µM, first compound 0.001 µM
[21] = second compound 1 µM, first compound 0.00316 µM
[22] = second compound 1 µM, first compound 0.01 µM
[23] = second compound 1 µM, first compound 0.0316 µM
[24] = second compound 1 µM, first compound 0.1 µM
[25] = second compound 3.16 µM, first compound 0.000316 µM
[26] = second compound 3.16 µM, first compound 0.001 µM
[27] = second compound 3.16 µM, first compound 0.00316 µM
[28] = second compound 3.16 µM, first compound 0.01 µM
[29] = second compound 3.16 µM, first compound 0.0316 µM
[30] = second compound 3.16 µM, first compound 0.1 µM
[31] = second compound 10 µM, first compound 0.000316 µM
[32] = second compound 10 µM, first compound 0.001 µM
[33] = second compound 10 µM, first compound 0.00316 µM
[34] = second compound 10 µM, first compound 0.01 µM
[35] = second compound 10 µM, first compound 0.0316 µM
[36] = second compound 10 µM, first compound 0.1 µM
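Note: luminescence signal used as a surrogate for viable cells; spheroids exposed to drugs for seven days before readout.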

## Cn1ncnc1[C@H]1c2n[nH]c(=O)c3cc(F)cc(c23)N[C@@H]1c1ccc(F)cc1 + COC1C(OC(N)=O)C(O)C(Oc2ccc3c(O)c(NC(=O)c4ccc(O)c(CC=C(C)C)c4)c(=O)oc3c2C)OC1(C)C
Second compound 0.0316 µM
  IC50: > 0.1 µM
Second compound 0.1 µM
  IC50: > 0.1 µM
Second compound 0.316 µM
  IC50: > 0.1 µM
Second compound 1 µM
  IC50: > 0.1 µM
Second compound 3.16 µM
  IC50: > 0.1 µM
Second compound 10 µM
  IC50: > 0.1 µM
[1]
  viability, T/C: 92.9%
[2]
  viability, T/C: 99.7%
[3]
  viability, T/C: 108%
[4]
  viability, T/C: 97.1%
[5]
  viability, T/C: 90.9%
[6]
  viability, T/C: 82.8%
[7]
  viability, T/C: 102%
[8]
  viability, T/C: 96.8%
[9]
  viability, T/C: 91.8%
[10]
  viability, T/C: 91.9%
[11]
  viability, T/C: 97.9%
[12]
  viability, T/C: 91.5%
[13]
  viability, T/C: 102%
[14]
  viability, T/C: 95.9%
[15]
  viability, T/C: 98.3%
[16]
  viability, T/C: 91%
[17]
  viability, T/C: 91.7%
[18]
  viability, T/C: 92.8%
[19]
  viability, T/C: 104%
[20]
  viability, T/C: 97.1%
[21]
  viability, T/C: 94.9%
[22]
  viability, T/C: 101%
[23]
  viability, T/C: 104%
[24]
  viability, T/C: 102%
[25]
  viability, T/C: 97%
[26]
  viability, T/C: 104%
[27]
  viability, T/C: 94.8%
[28]
  viability, T/C: 96.4%
[29]
  viability, T/C: 105%
[30]
  viability, T/C: 83.3%
[31]
  viability, T/C: 94.7%
[32]
  viability, T/C: 94.8%
[33]
  viability, T/C: 89.1%
[34]
  viability, T/C: 110%
[35]
  viability, T/C: 98.3%
[36]
  viability, T/C: 102%

## Cn1ncnc1[C@H]1c2n[nH]c(=O)c3cc(F)cc(c23)N[C@@H]1c1ccc(F)cc1 + Nc1ccc(C#CCN(C(=O)Cc2ncc(C(F)(F)F)cc2C(F)(F)F)c2ccc(F)cc2)nn1
Second compound 0.0316 µM
  IC50: > 0.1 µM
Second compound 0.1 µM
  IC50: > 0.1 µM
Second compound 0.316 µM
  IC50: > 0.1 µM
Second compound 1 µM
  IC50: > 0.1 µM
Second compound 3.16 µM
  IC50: > 0.1 µM
Second compound 10 µM
  IC50: > 0.1 µM
[1]
  viability, T/C: 98.8%
[2]
  viability, T/C: 97.4%
[3]
  viability, T/C: 104%
[4]
  viability, T/C: 94.5%
[5]
  viability, T/C: 98.1%
[6]
  viability, T/C: 103%
[7]
  viability, T/C: 103%
[8]
  viability, T/C: 114%
[9]
  viability, T/C: 99.2%
[10]
  viability, T/C: 104%
[11]
  viability, T/C: 95.7%
[12]
  viability, T/C: 99%
[13]
  viability, T/C: 100%
[14]
  viability, T/C: 110%
[15]
  viability, T/C: 95.6%
[16]
  viability, T/C: 106%
[17]
  viability, T/C: 95.3%
[18]
  viability, T/C: 93.9%
[19]
  viability, T/C: 105%
[20]
  viability, T/C: 90.5%
[21]
  viability, T/C: 89.4%
[22]
  viability, T/C: 99.4%
[23]
  viability, T/C: 120%
[24]
  viability, T/C: 90.5%
[25]
  viability, T/C: 101%
[26]
  viability, T/C: 103%
[27]
  viability, T/C: 86.4%
[28]
  viability, T/C: 95.3%
[29]
  viability, T/C: 104%
[30]
  viability, T/C: 99.2%
[31]
  viability, T/C: 95.4%
[32]
  viability, T/C: 102%
[33]
  viability, T/C: 98.6%
[34]
  viability, T/C: 91.3%
[35]
  viability, T/C: 103%
[36]
  viability, T/C: 106%

— PubChem BioAssay AID1963825 (Molecular Pharmacology Branch, DTP, NCI, 2024)
